Test results as given in ChEMBL document CHEMBL5257080, “Optimization of physicochemical properties of pyrrolidine GPR40 AgoPAMs results in a differentiated profile with improved pharmacokinetics and reduced off-target activities” (Bioorg Med Chem, 2023).
One block for each compound: values may come before it. Activity calls are given as the source filed them. No cut-off for these calls is given here.

Legend:
[1] = target: T1, Free fatty acid receptor 1 (Homo sapiens, UniProt O14842); experiment: Positive allosteric modulation of human GPR40 by calcium based FLIPR analysis
T1 sequence (O14842 whole entry): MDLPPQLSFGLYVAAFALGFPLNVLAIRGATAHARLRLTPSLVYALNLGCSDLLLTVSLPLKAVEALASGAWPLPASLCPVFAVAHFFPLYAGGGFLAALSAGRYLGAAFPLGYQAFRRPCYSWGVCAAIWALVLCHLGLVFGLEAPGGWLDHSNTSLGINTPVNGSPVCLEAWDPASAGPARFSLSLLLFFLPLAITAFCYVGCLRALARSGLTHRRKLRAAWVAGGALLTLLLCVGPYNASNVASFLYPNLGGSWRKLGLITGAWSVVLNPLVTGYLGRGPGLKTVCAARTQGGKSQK

[2] = target: T2, Peroxisome proliferator-activated receptor gamma (Homo sapiens, UniProt P37231); experiment: Transactivation of PPARgamma (unknown origin)
T2 sequence (P37231 whole entry): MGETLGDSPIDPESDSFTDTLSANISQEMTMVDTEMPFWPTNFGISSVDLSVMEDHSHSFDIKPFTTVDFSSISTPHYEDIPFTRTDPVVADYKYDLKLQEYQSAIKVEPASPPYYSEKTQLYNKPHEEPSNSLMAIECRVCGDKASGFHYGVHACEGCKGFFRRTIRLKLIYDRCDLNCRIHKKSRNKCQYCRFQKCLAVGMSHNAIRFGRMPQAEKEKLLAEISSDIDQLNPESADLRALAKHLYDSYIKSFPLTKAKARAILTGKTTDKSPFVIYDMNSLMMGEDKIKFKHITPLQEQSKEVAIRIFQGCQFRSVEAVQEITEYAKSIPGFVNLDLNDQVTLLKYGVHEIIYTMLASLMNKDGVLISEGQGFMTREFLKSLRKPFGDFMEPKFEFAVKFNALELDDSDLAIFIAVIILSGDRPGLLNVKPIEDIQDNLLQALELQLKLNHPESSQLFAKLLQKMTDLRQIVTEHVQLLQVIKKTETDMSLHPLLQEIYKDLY

[3] = Lipophilicity, logD of compound; type: physicochemical; settings: octanol/water
[4] = target: Free fatty acid receptor 1 (Mus musculus, UniProt Q76JU9); experiment: Positive allosteric modulation of mouse GPR40
Free fatty acid receptor 1 (Mus musculus, UniProt Q76JU9), sequence (Q76JU9 whole entry): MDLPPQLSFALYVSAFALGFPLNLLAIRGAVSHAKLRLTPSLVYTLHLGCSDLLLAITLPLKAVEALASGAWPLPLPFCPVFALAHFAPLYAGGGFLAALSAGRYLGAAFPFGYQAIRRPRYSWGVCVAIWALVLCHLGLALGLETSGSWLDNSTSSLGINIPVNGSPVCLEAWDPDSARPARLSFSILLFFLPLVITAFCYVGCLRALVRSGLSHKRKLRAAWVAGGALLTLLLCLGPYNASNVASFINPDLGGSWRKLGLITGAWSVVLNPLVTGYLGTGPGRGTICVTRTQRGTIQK

[5] = Cmax in mouse at 1 mg/kg; type: ADME, organism-based; parameters: dose 1 mg/kg; settings: in vivo
[6] = AUC (0-7hrs) in mouse at 1 mg/kg; type: ADME, organism-based; parameters: dose 1 mg/kg; settings: in vivo
[7] = target: T1, Free fatty acid receptor 1; experiment: Positive allosteric modulation of human GPR40 expressed in HEK293 cells; type: cell-based
[8] = Metabolic stability in mouse liver microsome assessed as parent compound remaining after 10 mins; type: ADME; settings: liver microsomes, read-out: Stability
Mus musculus = experiment: Anti-hyperglycemic activity against mouse assessed as reduction in plasma glucose level at 3 mg/kg, po by OGTT analysis; type: functional, organism-based
[9] = Drug concentration in mouse plasma measured after 3 hrs; type: ADME
[10] = target: T1, Free fatty acid receptor 1; experiment: Positive allosteric modulation of human GPR40 expressed in HEK293 cells assessed as maximum efficacy relative to control; type: cell-based; settings: filed as positive allosteric modulator
[11] = Toxicity in rat; settings: in vivo
[12] = Toxicity in rat assessed as change in heart rate; settings: in vivo
[13] = Toxicity in rat assessed as change in spontaneous locomotor activity; settings: in vivo
[14] = Toxicity in Sprague-Dawley rat assessed as hypoglycemia at 80 mg/kg, po measured for 24 hrs by glucometer analysis; type: organism-based; settings: in vivo
[15] = Permeability of compound across apical to basolateral side in dog MDCK cells; type: ADME, cell-based, Canis lupus familiaris; settings: read-out: permeability
[16] = Tmax in rat at 240 mg/kg qd; type: ADME, organism-based; settings: in vivo
[17] = Tmax in rat at 800 mg/kg qd; type: ADME, organism-based; settings: in vivo
[18] = Tmax in rat at 80 mg/kg qd; type: ADME, organism-based; settings: in vivo
[19] = Cmax in rat at 80 mg/kg qd; type: ADME, organism-based; parameters: dose 80 mg/kg; settings: in vivo
[20] = Cmax in rat at 240 mg/kg qd; type: ADME, organism-based; parameters: dose 240 mg/kg; settings: in vivo
[21] = Cmax in rat at 800 mg/kg qd; type: ADME, organism-based; parameters: dose 800 mg/kg; settings: in vivo
[22] = Cmax in rat at 40 mg/kg bid; type: ADME, organism-based; parameters: dose 40 mg/kg; settings: in vivo
[23] = AUC (0 to 24 hrs) in rat at 80 mg/kg qd; type: ADME, organism-based; parameters: dose 80 mg/kg; settings: in vivo
[24] = AUC (0 to 24 hrs) in rat at 240 mg/kg qd; type: ADME, organism-based; parameters: dose 240 mg/kg; settings: in vivo
[25] = AUC (0 to 24 hrs) in rat at 800 mg/kg qd; type: ADME, organism-based; parameters: dose 800 mg/kg; settings: in vivo

Compound: COCCOCO[C@H]1CN(c2ccc(O[C@@H]3CCN(c4cc(OC)ncc4Cl)C[C@H]3C)cc2)[C@@H](CC(=O)O)[C@@H]1C
- EC50 [1]: 180 nM

Compound: CCOc1ccc(F)c(N2CC[C@@H](Oc3ccc(N4C[C@H](OCCCOC)[C@@H](C)[C@@H]4CC(=O)O)cc3)[C@H](C)C2)c1
- EC50 [2]: > 47000 nM
- EC50 [1]: 51 nM
- logD [3]: 1.82
- EC50 [4]: 18 nM
- Cmax [5]: 1.4 µM
- AUC(0-t) [6]: 2.9 µM·h

Compound: CCOc1ccc(F)c(N2CC[C@@H](Oc3ccc(N4C[C@H](C(F)(F)F)C[C@@H]4CC(=O)O)cc3)[C@H](C)C2)c1
- EC50 [2]: > 48000 nM

Compound: CCOc1ccc(F)c(N2CC[C@@H](Oc3ccc(N4C[C@H](C(F)(F)F)C[C@@H]4CC(=O)O)cc3)[C@H](CC)C2)c1
- EC50 [1]: 430 nM

Compound: COc1ccc(F)c(N2CCC(Oc3ccc(N4CCC[C@@H]4CC(=O)O)cc3)CC2)c1
- EC50 [7]: 1400 nM
- EC50 [2]: > 50000 nM

Compound: CCOc1ccc(F)c(N2CC[C@@H](Oc3ccc(N4C[C@H](OCCCOC)C[C@@H]4CC(=O)O)cc3)[C@H](C)C2)c1
- logD [3]: 1.3

Compound: COc1cc(N2CC[C@@H](Oc3ccc(N4C[C@H](F)[C@@H](C)[C@@H]4CC(=O)O)cc3)[C@H](C)C2)c(Cl)cn1
- EC50 [2]: > 48000 nM
- EC50 [1]: 29 nM
- EC50 [4]: 48 nM
- remaining at 10 min [8]: 97%
- Activity (Mus musculus): inactive
- concentration at 3 h [9]: 0.156 µM

Compound: CCOc1ccc(F)c(N2CCC(Oc3ccc(N4C[C@H](Oc5cccc(OC)c5)C[C@@H]4CC(=O)O)cc3)CC2)c1
- EC50 [2]: > 47000 nM
- logD [3]: 2.15

Compound: COc1cc(N2CC[C@@H](Oc3ccc(N4C[C@H](OCCCC#N)[C@@H](C)[C@@H]4CC(=O)O)cc3)[C@H](C)C2)c(Cl)cn1
- EC50 [1]: 120 nM

Compound: CCOc1ccc(F)c(N2CC[C@@H](Oc3ccc(N4C[C@H](c5ccccc5)C[C@@H]4CC(=O)O)cc3)[C@H](C)C2)c1
- EC50 [2]: > 48000 nM
- EC50 [1]: 230 nM

More lines, main results first:

- EC50 [1]: 430 nM
Compound: CCOc1ccc(F)c(N2CC[C@@H](Oc3ccc(N4C[C@H](C(F)(F)F)C[C@@H]4CC(=O)O)cc3)[C@H](CC(C)C)C2)c1

- EC50 [2]: > 48000 nM
Compound: COc1cc(N2CC[C@@H](Oc3ccc(N4C[C@H](C(F)(F)F)[C@@H](C)[C@@H]4CC(=O)O)cc3)[C@H](C)C2)c(Cl)cn1

- EC50 [1]: 190 nM
Compound: CCCCCO[C@H]1CN(c2ccc(O[C@@H]3CCN(c4cc(OC)ncc4Cl)C[C@H]3C)cc2)[C@@H](CC(=O)O)[C@@H]1C

- EC50 [1]: 220 nM
Compound: CCOc1ccc(F)c(N2CC[C@@H](Oc3ccc(N4C[C@](C)(OC)C[C@@H]4CC(=O)O)cc3)[C@H](C)C2)c1

- EC50 [1]: 740 nM
Compound: CCOc1ccc(F)c(N2CC[C@@H](Oc3ccc(N4C[C@H](C(F)(F)F)C[C@@H]4CC(=O)O)cc3)[C@H](Cc3ccccc3)C2)c1

- EC50 [2]: > 48000 nM
- EC50 [1]: 110 nM
Compound: COc1cc(N2CC[C@@H](Oc3ccc(N4CC[C@@H](C)[C@@H]4CC(=O)O)cc3)[C@H](C)C2)c(Cl)cn1

- EC50 [2]: > 48000 nM
- Cmax [5]: 0.5 µM
- AUC(0-t) [6]: 0.5 µM·h
Compound: CCOc1ccc(F)c(N2CC[C@@H](Oc3ccc(N4C[C@H](OC)[C@@H](C)[C@@H]4CC(=O)O)cc3)[C@H](C)C2)c1

- EC50 [2]: > 48000 nM
Compound: COc1cc(N2CC[C@@H](Oc3ccc(N4C[C@H](F)[C@@H](OC)[C@@H]4CC(=O)O)cc3)[C@H](C)C2)c(Cl)cn1

- EC50 [2]: > 47000 nM
- logD [3]: 0.81
Compound: CCOc1ccc(F)c(N2CCC(Oc3ccc(N4C[C@H](OCCCOC)C[C@@H]4CC(=O)O)cc3)CC2)c1

- Emax [10]: 97%
Compound: COc1ccc(F)c(-c2ccc(Cc3ccc(N4C[C@H](C(F)(F)F)C[C@@H]4CC(=O)O)cc3)c(C)c2)c1
- Activity [11]: Toxic
- Activity [12]: Non-Toxic
- Activity [13]: Non-Toxic
- Activity [14]: Non-Toxic

- EC50 [2]: > 48000 nM
Compound: CCOc1ccc(F)c(N2CC[C@@H](Oc3ccc(N4CC(C)(C)C[C@@H]4CC(=O)O)cc3)[C@H](C)C2)c1

- EC50 [2]: > 47000 nM
- logD [3]: 2.44
Compound: CCOc1ccc(F)c(N2CCC(Oc3ccc(N4C[C@H](Oc5ccccc5)C[C@@H]4CC(=O)O)cc3)CC2)c1

- Papp A→B [15]: 5.7 ×10⁻⁶ cm/s
- Tmax [16]: 6 h
- Tmax [17]: 48 h
- Tmax [18]: 4 h
- Cmax [19]: 30 µM
- Cmax [20]: 30 µM
- Cmax [21]: 65 µM
- Cmax [22]: 30 µM
- AUC [23]: 243 µM·h
- AUC [24]: 1080 µM·h
- AUC [25]: 1430 µM·h
Compound: COc1ccc(F)c(-c2ccc(Cc3ccc(N4N=C(C(F)(F)F)[C@@H](C)[C@@H]4CC(=O)O)cc3)c(C)c2)c1
- Activity [14]: Non-Toxic

- EC50 [7]: 4100 nM
- EC50 [2]: > 50000 nM
Compound: COc1ccc(F)c(N2CCC(Oc3ccc(N4CCC[C@H]4CC(=O)O)cc3)CC2)c1

- EC50 [2]: 12000 nM
Compound: CCOc1ccc(F)c(N2CC[C@@H](Oc3ccc(N4C[C@H](OC)C[C@@H]4CC(=O)O)cc3)[C@H](C)C2)c1
